Results reported in the NIST ThermoML archive (doi:10.1021/je7006549).

Test: mn = molality of the nth substance listed, in mol/kg
Details: 101 kPa, Liquid

Cc1ccccc1C [1,2-dimethylbenzene] + CC1=CC(=O)c2ccccc2C1=O
m2 = 0
Details | mass density [kg/m3] | viscosity [mPa·s]
303.15 K | 872.1 | 0.7404
308.15 K | 867.7 | 0.69
313.15 K | 864 | 0.6451
318.15 K | 859.7 | 0.6117
323.15 K | 855.5 | 0.5711
328.15 K | 851.2 | 0.5433
333.15 K | 847.1 | 0.5105

Cc1cccc(C)c1 [1,3-dimethylbenzene] + CC1=CC(=O)c2ccccc2C1=O
m2 = 0
Details | mass density [kg/m3] | viscosity [mPa·s]
303.15 K | 855.6 | 0.549
308.15 K | 851.1 | 0.5201
313.15 K | 846.9 | 0.4967
318.15 K | 842.4 | 0.4817
323.15 K | 838.3 | 0.444
328.15 K | 833.7 | 0.435
333.15 K | 829.6 | 0.413

Cc1ccc(C)cc1 [1,4-dimethylbenzene] + CC1=CC(=O)c2ccccc2C1=O
m2 = 0
Details | mass density [kg/m3] | viscosity [mPa·s]
303.15 K | 852 | 0.5726
308.15 K | 847.7 | 0.5374
313.15 K | 843.2 | 0.5178
318.15 K | 838.7 | 0.4882
323.15 K | 834.5 | 0.4595
328.15 K | 829.9 | 0.4439
333.15 K | 825.6 | 0.4189

CC1=CC(=O)c2ccccc2C1=O [2-methyl-1,4-naphthalenedione] + CCc1ccccc1
Details | mass density [kg/m3] | viscosity [mPa·s]
303.15 K, m1 = 0.0451 | 859.9 | 0.6083
303.15 K, m1 = 0.0903 | 861.8 | 0.6164
303.15 K, m1 = 0.1354 | 863.7 | 0.6218
303.15 K, m1 = 0.1805 | 865.6 | 0.6317
303.15 K, m1 = 0.2256 | 867.5 | 0.6333
303.15 K, m1 = 0.271 | 869.4 | 0.6361
308.15 K, m1 = 0.0451 | 855.4 | 0.5735
308.15 K, m1 = 0.0903 | 857.3 | 0.5794
308.15 K, m1 = 0.1354 | 859.2 | 0.5853
308.15 K, m1 = 0.1805 | 861.1 | 0.5893
308.15 K, m1 = 0.2256 | 863 | 0.5948
308.15 K, m1 = 0.271 | 864.9 | 0.5991
313.15 K, m1 = 0.0451 | 851.4 | 0.5439
313.15 K, m1 = 0.0903 | 853.3 | 0.5484
313.15 K, m1 = 0.1354 | 855.2 | 0.5543
313.15 K, m1 = 0.1805 | 857.1 | 0.557
313.15 K, m1 = 0.2256 | 859 | 0.5611
313.15 K, m1 = 0.271 | 860.9 | 0.5673
318.15 K, m1 = 0.0451 | 846.6 | 0.5104
318.15 K, m1 = 0.0903 | 848.5 | 0.5148
318.15 K, m1 = 0.1354 | 850.4 | 0.5192
318.15 K, m1 = 0.1805 | 852.3 | 0.5241
318.15 K, m1 = 0.2256 | 854.2 | 0.5283
318.15 K, m1 = 0.271 | 856.1 | 0.533
323.15 K, m1 = 0.0451 | 842.4 | 0.4832
323.15 K, m1 = 0.0903 | 844.3 | 0.4881
323.15 K, m1 = 0.1354 | 846.2 | 0.4937
323.15 K, m1 = 0.1805 | 848.1 | 0.4969
323.15 K, m1 = 0.2256 | 850 | 0.5015
323.15 K, m1 = 0.271 | 851.9 | 0.5054
328.15 K, m1 = 0.0451 | 837.8 | 0.4615
328.15 K, m1 = 0.0903 | 839.7 | 0.4648
328.15 K, m1 = 0.1354 | 841.6 | 0.4715
328.15 K, m1 = 0.1805 | 843.5 | 0.474
328.15 K, m1 = 0.2256 | 845.4 | 0.4758
328.15 K, m1 = 0.271 | 847.3 | 0.4806
333.15 K, m1 = 0.0451 | 833.5 | 0.4405
333.15 K, m1 = 0.0903 | 835.4 | 0.444
333.15 K, m1 = 0.1354 | 837.3 | 0.4475
333.15 K, m1 = 0.1805 | 839.2 | 0.451
333.15 K, m1 = 0.2256 | 841.1 | 0.4546
333.15 K, m1 = 0.271 | 843 | 0.4581
